One assay has as its system KM12 cells. Briefly: KM12 cell viability (CellTiter-Glo). The format is cell-based. Particulars: Homo sapiens. The procedure, abridged: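 Three-day exposure of KM12 cells (5000/well, RPMI 1640 with 10% FBS, 37 °C, 5% CO2) to compound dilution series, 3-fold over 8 or 11 points (top 1000 nM in the 8-point format) or 2-fold over 12. CellTiter-Glo readout, with IC50 fitted by nonlinear least-squares regression.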

In another assay the target is T1, TPM3-TRKA fusion protein (Homo sapiens, UniProt P04629).
T1 construct: The resulted chimeric proteins always retain the kinase domain of TRK proteins; TPM3 (fusion partner, N-terminal part of tropomyosin alpha-3, P06753); endogenous in cells; host or cells: KM12 colon cancer cells; the other entry of the earlier key: TPM3 (P06753, Tropomyosin alpha-3 chain)
T1 sequence (P04629 with tags, fused parts or gaps): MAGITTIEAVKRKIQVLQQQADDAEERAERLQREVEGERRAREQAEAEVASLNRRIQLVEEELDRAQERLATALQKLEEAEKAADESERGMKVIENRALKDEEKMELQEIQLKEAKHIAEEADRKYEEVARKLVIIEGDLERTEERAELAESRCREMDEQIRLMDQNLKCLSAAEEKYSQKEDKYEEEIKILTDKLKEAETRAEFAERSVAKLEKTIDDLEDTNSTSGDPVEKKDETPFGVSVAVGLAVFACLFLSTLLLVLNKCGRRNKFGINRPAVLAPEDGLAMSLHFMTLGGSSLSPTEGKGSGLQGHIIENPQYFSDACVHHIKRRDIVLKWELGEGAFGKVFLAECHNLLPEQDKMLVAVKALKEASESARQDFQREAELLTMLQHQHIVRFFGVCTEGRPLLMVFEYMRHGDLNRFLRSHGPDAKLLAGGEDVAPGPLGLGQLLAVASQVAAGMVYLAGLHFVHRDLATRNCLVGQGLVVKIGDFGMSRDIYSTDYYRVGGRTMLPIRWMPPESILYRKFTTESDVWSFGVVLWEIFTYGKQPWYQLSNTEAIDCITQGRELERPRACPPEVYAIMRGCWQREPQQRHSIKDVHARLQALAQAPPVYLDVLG
The assay can be described thus: TPM3-TRKA fusion protein levels in KM12 cells (Western blot). In kind it is cell-based. Particulars: read-out: Degradation (at 10 nM). The procedure, abridged:
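TPM3-TRKA levels were assessed by Western blot with chemiluminescent detection and band densitometry, after SDS-PAGE of BCA-normalized RIPA lysates. Before lysis, KM12 cells received DMSO, compounds or matched control compounds at concentrations including 0.1, 1, 10 and 100 nM and 0.4–30 nM. Exposures lasted 4 h, 8–16 h or 16 h.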

Where [1] appears, read: 72 h, KM12 cell viability, CellTiter-Glo, three days treatment, read-out: IC50.
Setting [2] is: 16 h, TPM3-TRKA degradation in KM12 cells at 10 nM compound, category of percentage degradation.

Molecules are shown by their SMILES. Where two headings read alike, the source gives them in different places.

As to `O=C1CCC(N2C(=O)c3ccc(CN4CC(N5CCN(c6ccc(C(=O)Nc7n[nH]c8ccc(Cc9cc(F)cc(F)c9)cc78)cc6)CC5)C4)cc3C2=O)C(=O)N1` (stereo not drawn) [TR-261, N-(5-(3,5-Difluorobenzyl)-1H-indazol-3-yl)-4-(4-(1-((2-(2,6-dioxopiperidin-3-yl)-1,3-dioxoisoindolin-S-yl)methyl)azetidin-3-yl)piperazin-1-yl)benzamide], the IC50 with KM12 cells (KM12, 72 h) was determined as 0.366 µM. Moreover, the percent degradation of TPM3-TRKA protein at 0.01 µM at TPM3-TRKA fusion protein (KM12, 16 h) was 50 to 80%.
Take `O=C1CCC(N2C(=O)c3ccc(CN4CC(CN5CCN(c6ccc(C(=O)Nc7n[nH]c8ccc(Cc9cc(F)cc(F)c9)cc78)cc6)CC5)C4)cc3C2=O)C(=O)N1` (stereo not drawn) [TR-262, N-(5-(3,5-Difluorobenzyl)-1H-indazol-3-yl)-4-(4-((1-((2-(2,6-dioxopiperidin-3-yl)-1,3-dioxoisoindolin-5-yl)methyl)azetidin-3-yl)methyl)piperazin-1-yl)benzamide]: in the assay with KM12 cells (setting [1]), the IC50 worked out at 0.081 µM. Moreover, at TPM3-TRKA fusion protein (setting [2]), the percent degradation of TPM3-TRKA protein at 0.01 µM is over 80%.
`O=C1CCC(N2C(=O)c3ccc(NCCN4CCN(c5ccc(C(=O)Nc6n[nH]c7ccc(Cc8cc(F)cc(F)c8)cc67)cc5)CC4)cc3C2=O)C(=O)N1` (stereo not drawn) [TR-263, N-(5-(3,5-difluorobenzyl)-1H-indazol-3-yl)-4-(4-(2-((2-(2,6-dioxopiperidin-3-yl)-1,3-dioxoisoindolin-5-yl)amino)ethyl)piperazin-1-yl)benzamide]: the IC50 with KM12 cells (setting [1]) turned out to be 0.0192 µM. On TPM3-TRKA fusion protein (setting [2]), the percent degradation of TPM3-TRKA protein at 0.01 µM fell in the range of 50 to 80%.
On the same counts, the results for `O=C1CCC(N2C(=O)c3ccc(NCC(=O)N4CCN(c5ccc(C(=O)Nc6n[nH]c7ccc(Cc8cc(F)cc(F)c8)cc67)cc5)CC4)cc3C2=O)C(=O)N1` (stereo not drawn) [TR-264, N-(5-(3,5-difluorobenzyl)-1H-indazol-3-yl)-4-(4-((2˜ (2,6-dioxopiperidin-3-yl)-1,3-dioxoisoindolin-5-yl)glycyl)piperazin-1-yl)benzamide] are 0.0099 µM and over 80%.
On the same counts, the results for `O=C1CCC(N2C(=O)c3ccc(N4CC(CN5CCN(c6ccc(C(=O)Nc7n[nH]c8ccc(Cc9cc(F)cc(F)c9)cc78)cc6)CC5)C4)cc3C2=O)C(=O)N1` (stereo not drawn) [TR-265, N-(5˜ (3,5-difluorobenzyl)-1H-indazol-3-yl)-4-(4-((1-(2-(2,6-dioxopiperidin-3-yl)-1,3-dioxoisoindolin-5-yl)azetidin-3-yl)methyl)piperazin-1-yl)benzamide] are 0.0133 µM and over 80%.
On the same counts, the results for `O=C1CCC(N2C(=O)c3ccc(NCC(=O)N4CCN(c5ccc(C(=O)Nc6n[nH]c7ccc(Cc8cc(F)cc(F)c8)cc67)c(NCCF)c5)CC4)cc3C2=O)C(=O)N1` (stereo not drawn) [TR-266, N-(5-(3,5-difluorobenzyl)-1H-indazol-3-yl)-4-(4˜ ((2-(2,6-dioxopiperidin-3-yl)-1,3-dioxoisoindolin-5-yl)glycyl)piperazin-1-yl)-2-((2-fluoroethyl)amino)benzamide] are 0.0072 µM and over 80%.
Consider `O=C1CCC(N2C(=O)c3ccc(N4CC(CN5CCN(c6ccc(C(=O)Nc7n[nH]c8ccc(Cc9cc(F)cc(F)c9)cc78)c(NCCF)c6)CC5)C4)cc3C2=O)C(=O)N1` (stereo not drawn) [TR-267, N-(5-(3,5-difluorobenzyl)-1H-indazol-3-yl)-4-(4-((1-(2-(2,6-dioxopiperidin-3-yl)-1,3-dioxoisoindolin-5-yl)azetidin-3-yl)methyl)piperazin-1-yl)-2-((2-fluoroethyl)amino)benzamide], for which the IC50 with KM12 cells (setting [1]) was found to be 0.0117 µM. Moreover, the percent degradation of TPM3-TRKA protein at 0.01 µM at TPM3-TRKA fusion protein (setting [2]) is over 80%.
On the same counts, the results for `O=C1CCC(N2C(=O)c3ccc(NCCN4CCN(c5ccc(C(=O)Nc6n[nH]c7ccc(Cc8cc(F)cc(F)c8)cc67)c(NCCF)c5)CC4)cc3C2=O)C(=O)N1` (stereo not drawn) [TR-268, N-(5-(3,5-Difluorobenzyl)-1H-indazol-3-yl)-4-(4-(2-((2-(2,6-dioxopiperidin-3-yl)-1,3-dioxoisoindolin-5-yl)amino)ethyl)piperazin-1-yl)-2-((2-fluoroethyl)amino)benzamide] are 0.0062 µM and over 80%.
For the compound `O=C1CCC(N2C(=O)c3ccc(N4CCN(c5ccc(C(=O)Nc6n[nH]c7ccc(Cc8cc(F)cc(F)c8)cc67)c(NC6CCOCC6)c5)CC4)cc3C2=O)C(=O)N1` (stereo not drawn) [TR-269, N-(5-(3,5-Difluorobenzyl)-1H-indazol-3-yl)-4-(4-(2-(2,6-dioxopiperidin-3-yl)-1,3-dioxoisoindolin-5-yl)piperazin-1-yl)-2-((tetrahydro-2H-pyran-4-yl)amino)benzamide], the IC50 with KM12 cells (setting [1]) came out at 0.0446 µM. Further, the percent degradation of TPM3-TRKA protein at 0.01 µM on TPM3-TRKA fusion protein (setting [2]) is under 50%.
On the same counts, the results for `O=C1CCC(N2C(=O)c3ccc(N4CCC(CN5CCN(c6ccc(C(=O)Nc7n[nH]c8ccc(Cc9cc(F)cc(F)c9)cc78)c(NC7CCOCC7)c6)CC5)C4)cc3C2=O)C(=O)N1` (stereo not drawn) [TR-270, N-(5-(3,5-difluorobenzyl)-1H-indazol-3-yl)-4-(4-((1-(2-(2,6-dioxopiperidin-3-yl)-1,3-dioxoisoindolin-5-yl)pyrrolidin-3-yl)methyl)piperazin-1-yl)-2-((tetrahydro-2H-pyran-4-yl)amino)benzamide] are 0.0103 µM and over 80%.
On the same counts, the results for `O=C1CCC(N2C(=O)c3ccc(N4CCC(CN5CCN(c6ccc(C(=O)Nc7n[nH]c8ccc(Cc9cc(F)cc(F)c9)cc78)c(NC7CCOCC7)c6)CC5)CC4)cc3C2=O)C(=O)N1` (stereo not drawn) [TR-271, N-(5-(3,5-Difluorobenzyl)-1H-indazol-3-yl)-4-(4-((1-(2-(2,6-dioxopiperidin-3-yl)-1,3-dioxoisoindolin-5-yl)piperidin-4-yl)methyl)piperazin-1-yl)-2-((tetrahydro-2H-pyran-4-yl)amino)benzamide] are 0.022 µM and over 80%.
As for `O=C1CCC(N2C(=O)c3ccc(N4CCCC(CN5CCN(c6ccc(C(=O)Nc7n[nH]c8ccc(Cc9cc(F)cc(F)c9)cc78)c(NC7CCOCC7)c6)CC5)C4)cc3C2=O)C(=O)N1` (stereo not drawn) [TR-272], the IC50 in the assay with KM12 cells (setting [1]) came out at 0.0201 µM. Also, the percent degradation of TPM3-TRKA protein at 0.01 µM at TPM3-TRKA fusion protein (setting [2]) is 50 to 80%.
On the same counts, the results for `O=C1CCC(N2C(=O)c3ccc(NC(=O)CN4CCN(c5ccc(C(=O)Nc6n[nH]c7ccc(Cc8cc(F)cc(F)c8)cc67)c(NC6CCOCC6)c5)CC4)cc3C2=O)C(=O)N1` (stereo not drawn) [TR-273, N-(5-(3,5-Difluorobenzyl)-1H-indazol-3-yl)-4-(4-(2-((2-(2,6-dioxopiperidin-3-yl)-1,3-dioxoisoindolin-5-yl)amino)-2-oxoethyl)piperazin-1-yl)-2-((tetrahydro-2H-pyran-4-yl)amino)benzamide] are 0.0411 µM and over 80%.
With `O=C1CCC(N2C(=O)c3ccc(CCCN4CCN(c5ccc(C(=O)Nc6n[nH]c7ccc(Cc8cc(F)cc(F)c8)cc67)c(NC6CCOCC6)c5)CC4)cc3C2=O)C(=O)N1` (stereo not drawn) [TR-276, N-(5-(3,5-difluorobenzyl)-1H-indazol-3-yl)-4-(4-(3-(2˜ (2,6-dioxopiperidin-3-yl)-1,3-dioxoisoindolin-5-yl)propyl)piperazin-1-yl)-2-((tetrahydro-2H-pyran-4-yl)amino)benzamide], the IC50 in the assay on KM12 cells (setting [1]) was determined as 0.0099 µM. For the same compound, the percent degradation of TPM3-TRKA protein at 0.01 µM on TPM3-TRKA fusion protein (setting [2]) was over 80%.
On the same counts, the results for `O=C1CCC(N2C(=O)c3ccc(N4CCCC(N5CCN(c6ccc(C(=O)Nc7n[nH]c8ccc(Cc9cc(F)cc(F)c9)cc78)c(NC7CCOCC7)c6)CC5)C4)cc3C2=O)C(=O)N1` (stereo not drawn) [TR-278, N-(5-(3,5-Difluorobenzyl)-1H-indazol-3-yl)-4-(4-(1-(2-(2,6-dioxopiperidin-3-yl)-1,3-dioxoisoindolin-5-yl)piperidin-3-yl)piperazin-1-yl)-2-((tetrahydro-2/-pyran-4-yl)amino)benzamide] are 0.0347 µM and 50 to 80%.
On the same counts, the results for `O=C1CCC(N2C(=O)c3ccc(CN4CCCC(N5CCN(c6ccc(C(=O)Nc7n[nH]c8ccc(Cc9cc(F)cc(F)c9)cc78)c(NC7CCOCC7)c6)CC5)C4)cc3C2=O)C(=O)N1` (stereo not drawn) [TR-279, N-(5-(3,5-difluorobenzyl)-1H-indazol-3-yl)-4-(4-(1-((2-(2,6-dioxopiperidin-3-yl)-1,3-dioxoisoindolin-5-yl)methyl)piperidin-3-yl)piperazin-1-yl)-2-((tetrahydro-2H-pyran-4-yl)amino)benzamide] are 0.019 µM and over 80%.
`O=C1CCC(N2C(=O)c3ccc(N4CCC(N5CCN(c6ccc(C(=O)Nc7n[nH]c8ccc(Cc9cc(F)cc(F)c9)cc78)c(NC7CCOCC7)c6)CC5)CC4)cc3C2=O)C(=O)N1` (stereo not drawn) [TR-280, N-(5-(3,5-difluorobenzyl)-1H-indazol-3-yl)-4-(4-(1-(2-(2,6-dioxopiperidin-3-yl)-1,3-dioxoisoindolin-5-yl)piperidin-4-yl)piperazin-1-yl)-2-((tetrahydro-2H-pyran-4-yl)amino)benzamide] had an IC50 in the assay on KM12 cells (KM12, 72 h) of 0.0043 µM. Besides, the percent degradation of TPM3-TRKA protein at 0.01 µM on TPM3-TRKA fusion protein (KM12, 16 h) was over 80%.
In the case of `O=C1CCC(N2C(=O)c3ccc(CN4CCC(N5CCN(c6ccc(C(=O)Nc7n[nH]c8ccc(Cc9cc(F)cc(F)c9)cc78)c(NC7CCOCC7)c6)CC5)CC4)cc3C2=O)C(=O)N1` (stereo not drawn) [TR-281, N-(5-(3,5-difluorobenzyl)-1H-indazol-3-yl)-4-(4-(1-((2-(2,6-dioxopiperidin-3-yl)-1,3-dioxoisoindolin-5-yl)methyl)piperidin-4-yl)piperazin-1-yl)-2-((tetrahydro-2H-pyran-4-yl)amino)benzamide], the IC50 in the assay on KM12 cells (setting [1]) came to 0.0174 µM. In addition, the percent degradation of TPM3-TRKA protein at 0.01 µM on TPM3-TRKA fusion protein (setting [2]) is over 80%.

The values above are taken from US12410171B2, “Tropomyosin receptor kinase (TRK) degradation compounds and methods of use” (Cullgen (Shanghai), Inc., priority 2020, dated 2025).
